Test results as given in patent publication US6465494B1, “Methods for treatment of cystic fibrosis” (Cell Pathways, Inc., priority 2001, dated 2002).
Like-named read-outs stand apart in the source and are kept apart here.

Columns and labels:
[1] = target: T1, GST-cGB-PDE5 fusion protein (Homo sapiens, UniProt O76074); experiment: cGMP binding assay with GST-cGB-PDE5 fusion protein; settings: for competition with cGMP binding to GST-cGB-PDE5 at high concentration: compound at high concentration, cGMP 2 μM
T1 construct: made in house; host or cells: E. coli BL21 (DE3)
Source text: RT-PCR method is used to obtain the cGB domain of PDE5 with forward and reverse primers designed from bovine PDE5A cDNA sequence (McAllister-Lucas L. M et al, J. Biol. Chem. 268, 22863-22873, 1993) and the selection among PDE 1-10 families. 5′-3′, Inc. kits for total RNA followed by oligo (dT) column purification of mRNA are used with HT-29 cells. […] It is then cloned into pGEX-5X-3 glutathione-S-transferase (GST) fusion vector (Pharmacia Biotech )with tac promoter, and EcoRI and XhoI cut sites. The fusion vector is then transfected into E. Coli BL21 (DE3) bacteria (Invitrogen). The transfected BL21 bacteria is grown to log phase, and then IPTG is added as an inducer. The induction is carried at 20° C. for 24 hrs. The bacteria are harvested and lysed. The soluble cell lysate is incubated with GSH conjugated Sepharose 4B (GSH-Sepharose 4B). The GST-cGB-PDE5 fusion protein can bind to the GSH-Sepharose beads, and the other proteins are washed off from beads with excessive cold PBS.
Then, the mixture is transferred to Brandel MB-24 cell harvester with GF/B as the filter membrane followed by 2 washes with 10 mL of cold 5 mM potassium buffer(pH 6.8). The membranes are then cut out and transferred to scintillation vials followed by the addition of 1 mL of H2O and 6 mL of Ready Safe™ liquid scintillation cocktail to each vial. The vials are counted on a Beckman LS 6500 scintillation counter.
The quenching by filter membrane or other debris are also calibrated.

PDE5 = PDE5 (Homo sapiens, UniProt O76074); experiment: cGMP PDE inhibition, 3H-cGMP hydrolysis: PDE5; type: biochemical; set-up: partially purified cGMP-specific PDE isolated from HT-29 cells; endogenous in cells; host or cells: HT-29
Description: (Thompson, W. J., Teraski, W. L., Epstein, P. M., Strada, S. J., Advances in Cyclic Nucleotide Research, 10:69-92, 1979, which is incorporated herein by reference). […] The mixture is incubated at 30° C. for 10 minutes with isolated PDE2 and/or PDE5. Reactions are terminated, for example, by boiling the reaction mixture for 75 seconds. After cooling on ice, 100 μl of 0.5 mg/mL snake venom (O. Hannah venom available from Sigma) is added and incubated for 10 minutes at 30° C. This reaction is then terminated by the addition of an alcohol, e.g. 1 mL of 100% methanol. Assay samples are applied to 1 mL Dowex 1-X8 column; and washed with 1 mL of 100% methanol. The amount of radioactivity in the breakthrough and the wash from the column is combined and measured with a scintillation counter. The degree of phosphodiesterase inhibition is determined by calculating the amount of radioactivity in drug-treated reactions and comparing against a control sample (a reaction mixture lacking the tested compound but with drug solvent).
Compounds of this invention are also PDE2 and PDE5 inhibitors as taught in part U.S. patent application Ser. No. 09/046,739 filed Mar. 24, 1998. […] The amount of radioactivity in the breakthrough and the wash from the columns in then measured with a scintillation counter. […]

native bovine PDE5 = native bovine PDE5 (Bos taurus, UniProt Q28156); settings: read-out: Kd of cGMP binding, native bovine PDE5; cited from earlier work
U937 cells = experiment: apoptosis induction of U937 cells (active caspase 3 immunofluorescence); type: cell-based; settings: 24 hours
Description: The U937 monocyte cell line was derived from a histocytic lymphoma and can be driven to differentiate into an ‘activated macrophage like’ state by treatment with 5nM phorbal ester (TPA). Treated U937 cells become adherent, increase their cytoplasmic volume and express macrophage-specific cell surface markers. The presence and level of PDE2 and 5 mRNA in both differentiated and non-differentiated U937 cells was confirmed by performing RT-PCR experiments on total RNA.
U937 cells (from ATCC Rockville, Md.) were grown in RPMI media supplemented with 5% FCS, glutamine, antibiotic/antimycotic and sodium pyruvate. Total RNA was isolated from two U937 cultures, one treated with 5nM TPA for 48 hours and one grown in normal media as listed above, using the Rouche High Pure RNA Isolation Kit (cat# 1 828 665) as per manufacturers protocol. cDNA was then synthesized from the total RNA using GibcoBRL Superscriptll (Cat # 18064-022) reverse transcriptase as per manufacturers protocol. The resulting cDNA was used as a template for RT-PCR reactions using primer sets specific for PDE2 (forward: […], reverse: […]) or PDE5 (forward: […], reverse: […]). mRNA for PDE2 and 5 were both present in the untreated U937 cells. Upon treatment with TPA, the relative amounts of PDE2 mRNA increased 5 fold. Therefore, U937 cells treated with TPA and driven to differentiate into an activated macrophage like state have elevated levels of PDE2 mRNA (see FIG. 1).
The presence of PDE2 and PDE5 protein within U937 cells was confirmed by indirect immunofluorescence (IIF). U937 cells were cultured as above. Two U937 cultures, one grown in the presence of 5 nM TPA for 48 hours and one grown in normal media were processed. All cultures were collected by centrifugation (Shandon Cytospin, 2 minutes @ 600 rpm) onto poly-L lysine-coated slides and immediately fixed in fresh 3% paraformaldehyde buffered in PBS for 10 minutes. Adherent cultures were grown on coverslips and fixed as above. […]
The level of apoptosis in U937 cells was quantified by scoring 500 consecutive cells for the presence of active caspase 3. […]

| Structure (SMILES) | competition with cGMP in binding to the cGMP binding sites of GST-cGB-PDE5 ([1]; 3H-cGMP 2 μM, 22° C., 1 hour) | other results |
| --- | --- | --- |
| CCCCOC1C2OP(=O)(O)OCC2OC1n1cnc2c(N)ncnc21 (stereo not shown) [2′-O-butyl-cAMP] | did not compete |  |
| CCCCOC1C2OP(=O)(O)OCC2OC1n1cnc2c(=O)[nH]c(N)nc21 (stereo not shown) [2′-O-butyl-cGMP] | did not compete |  |
| Nc1ncnc2c1ncn2[C@@H]1O[C@@H]2COP(=O)(O)O[C@H]2[C@H]1O [Cyclic AMP] |  | competition with cGMP in binding to the cGMP binding sites of GST-cGB-PDE5 [1]: did not compete |
| O=c1[nH]cnc2c1ncn2[C@@H]1O[C@@H]2COP(=O)(O)O[C@H]2[C@H]1O [Cyclic IMP, cyclic IMP] |  | competition with cGMP binding to GST-cGB-PDE5 at high concentration [1]: can partially compete |
| CC1=C(CC(=O)NCc2ccccc2)c2cc(F)ccc2/C1=C\c1ccncc1 [Example 1, (Z)-5-Fluoro-2-Methyl-(4-Pyridinylidene)-3-(N-Benzyl)-Indenylacetamide] |  | IC50 (PDE5): 680 nM |
| Nc1nc2c(nc(Br)n2[C@@H]2O[C@@H]3COP(=O)(O)O[C@H]3[C@H]2O)c(=O)[nH]1 [Example 8-bromo-cGMP, 8-bromo-cGMP] |  | competition with cGMP binding to GST-cGB-PDE5 at high concentration [1]: can partially compete |
| O=C([O-])C1CCN(c2nc(NCc3ccc4c(c3)OCO4)c3cc(Cl)ccc3n2)CC1.[Na+] [Example E4021] | None of the PDE5 inhibitors showed any competition with cGMP |  |
| CSc1ccc(/C=C2/C(C)=C(CC(=O)O)c3cc(F)ccc32)cc1 [Sulindac sulfide, sulindac sulfide] | None of the PDE5 inhibitors showed any competition with cGMP |  |
| Nc1ccn([C@@H]2O[C@@H]3COP(=O)(O)O[C@H]3[C@H]2O)c(=O)n1 [cCMP, cyclic CMP] | did not compete |  |
| Nc1nc2c(ncn2[C@@H]2O[C@@H]3COP(=O)(O)O[C@H]3[C@H]2O)c(=O)[nH]1 [cGMP, cyclic 3′,5′-guanosine monophosphate] |  | Kd ([1]; read-out: Kd of cGMP binding to GST-cGB-PDE5 fusion protein, two cGMP binding sites): 1600 ± 200 nM; Kd (native bovine PDE5): 1300 nM |
| O=c1ccn([C@@H]2O[C@@H]3COP(=O)(O)O[C@H]3[C@H]2O)c(=O)[nH]1 [cUMP, cyclic UMP] | did not compete |  |
| CC1=C(CC(=O)O)c2cc(F)ccc2/C1=C\c1ccc(S(C)(=O)=O)cc1 [exisulind] | None of the PDE5 inhibitors showed any competition with cGMP |  |
| COc1ccc(C2CNC(=O)C2)cc1OC1CCCC1 (stereo not shown) [rolipram, reference compound] |  | levels of apoptosis (active caspase 3) (U937 cells; 0.5uM): No increase in the levels of apoptosis compared to normal background |
| CCCc1nn(C)c2c(=O)[nH]c(-c3cc(S(=O)(=O)N4CCN(C)CC4)ccc3OCC)nc12 [sildenafil, reference compound] |  | levels of apoptosis (active caspase 3) (U937 cells; 0.3nM): No increase in the levels of apoptosis compared to normal background |
| CCCOc1ccccc1-c1nc2nn[nH]c2c(=O)[nH]1 [zaprinast] | None of the PDE5 inhibitors showed any competition with cGMP |  |
